Patent publication EP4574151A1, “INHIBITORS OF G12V-MUTATED RAS PROTEIN TO TREAT CANCER” (Personather Spolka Z Ograniczona Odpowiedzialnoscia, priority 2023, dated 2025)
“Also recorded” adds a separate entry of the source.

Legend:
Assay type in all cases: cell-based
[1] = test system: NCI-H1975; assay: Toxicity against cancer cells expressing wild type RAS; details: summary statement
Procedure: The results of in vitro analyses were presented in the examples. Commercially available cancer cell lines were used for the studies, including SW480, SW620, and COR-L23, showing endogenous expression of KRASG12V, as well as a cell line with exogenously introduced KRASG12V mutation (using methods of genetic engineering) - the DK-MGEGFRvIIIKRASG12V line. Additionally, the cancer cell line NCI- H1975, characterized by the expression of wild type RASWT proteins, was also analyzed.

[2] = test system: PER49 cell line; assay: Western Blot analysis of the RAS-controlled signal transduction pathway in a normal cell line; details: normal PER49 cell line without KRASG12V; 10, 15 and 20 µM; 24 hours; serum-free; ERK, p-ERK, Akt, pAkt blots
Text: Analysis of the impact of the studied compound on the signal transduction pathway controlled by RAS family proteins in normal cell lines based on Western Blot analysis.
The example illustrates the impact of the PER154A and PER160A molecules on the signal transduction pathway in the normal PER49 cell line.
• 1. PER49 cell line cells at 80-90% confluency were rinsed with phosphate-buffered saline without Mg2+ and Ca2+ ions. Remove PBS. • 2. Cells were detached from the vessel using Trypsin-EDTA (0.05%, 1x) for 1-3 minutes at 37°C. • 3. Cells were transferred to a 15 ml tube, centrifuged (200xg, 4 minutes) and suspended in RPMI1640 medium with 10% bovine serum and antibiotics. • 4. Cells were counted. • 5. 3x10^5cells were added to each well of a 6-well plate for adherent culture. • 6. The above medium was added and left for approximately 24 hours.
• 7. The cells were washed 2-3 times with buffered saline without Mg2+ and Ca2+ ions. Each time PBS was thoroughly removed. • 8.2 ml of RPMI1640 medium with antibiotics and without serum was added, and left for approximately 24 hours.
• 9. The cells were washed 2-3 times with a buffered saline solution without Mg2+ and Ca2+. PBS was thoroughly removed each time. • 10. […]

[3] = test system: NIH/3T3 cell line - immortalized mouse fibroblasts; assay: Crystal violet cytotoxicity test in normal cells; details: summary statement; normal cells NIH/3T3 and PER49
Text: To evaluate the toxicity of the tested compound on normal cells, the NIH/3T3 cell line - immortalized mouse fibroblasts and normal pericytes (PER49) were used.
As a research model, colon cancer and lung cancer cell lines (sensitive lines) were used, including SW620, SW480, and COR-L23, respectively, which are characterized by the KRASG12V gene mutation and lack of other alterations in genes belonging to the RAS protein signaling pathway, as well as a stable line of normal cells (mouse fibroblasts), which serve as a platform for evaluating the impact of tested compounds on non-cancer cells. Below is the result for one of the analyzed cell lines with the mutation. Similar differences in IC50 values compared to normal cells were obtained for the other cell lines mentioned above with the RASG12V mutation.
The effect of molecules on the biology of selected cell lines to assess their cytotoxicity using the IC50 indicator was carried out according to the protocol below: • 1. The cells of the tested lines were seeded in wells of a 96-well plate at specified densities. • 2. After seeding, the cells were subjected to a 24-hour incubation in medium with a 1% and 2.5% addition of serum (sensitive lines) or in medium with a 0.5% addition of serum (normal line). • 3. The cells were exposed to selected molecules at selected concentrations. The control was provided by the culture medium without any added compounds. Concentrations of the tested molecules [uM]: • □ NIH3T3: 500; 250; 125; 62,5; 31,25 • □ SW620: 60; 30; 15; 7,5; 3,75 • 4. After 72 hours of incubation, the culture medium was removed and the cells were washed twice with buffer saline solution (PBS). Then, the cells were incubated for 10 minutes with a 0.1% solution of crystal violet at room temperature (Merck Millipore). • 5. After 10 minutes, the crystal violet solution was removed and the wells of the 96-well plate were washed twice with PBS solution. • 4. 50% ice-cold acetic acid solution was added to each well and incubated again for 10 minutes at room temperature on a shaker at 650 rpm. • 5. Absorbance measurement was performed using a plate reader, at a wavelength of λ = 540 nm

Row | SMILES | toxicity against cancer cells expressing normal RAS protein [1] | influence on the signal transduction pathway [2] | toxicity against normal cells [3]
1 | O=C(Nc1ccc2c(c1)OCCO2)c1ccc2c(c1)C1C3CCC(C3)C1C(c1ccccc1)N2 (stereo not drawn) [PER154A] | no toxicity | No impact; also recorded: does not show any influence | no toxicity
2 | O=C(Nc1ccc(F)cc1)c1ccc2c(c1)C1C3CCC(C3)C1C(c1ccccc1)N2 (stereo not drawn) [PER160A] | no toxicity | No impact; also recorded: does not show any influence | no toxicity
